In patent US7723562B2, “Mice lacking alpha 1G showing enhanced novelty-seeking and alcohol preference and therapeutic methods for mood disorders by modulating alpha 1G T-type calcium channels” (Korea Institute of Science and Technology, priority 2004, dated 2010):
“Also recorded” adds a separate entry of the source.

System: α1G−/− transgenic mice
Experiment: Mobility in an open field after drug treatment (pharmacological analysis)
Assay type: in vivo, mouse
Settings: 0.5 mg/kg injected into abdominal cavity, FIG. 8
Description: For reactivity test in an open field, a test animal was transferred to a test room one hour before the test began and each animal was put in an independent breeding cage for adaptation.
In order to investigate whether or not mobility increase of α1G−/− transgenic mice is related to diseases such as attention-deficit hyperactive disorder, schizophrenia, stereotype, etc., the present inventors have performed analysis of pharmacological effect of lithium and amphetamine which have been used as a therapeutic agent for the above diseases.
First, the effect of lithium and amphetamine on reactivity to a new subject was investigated. Particularly, one hour before exposing a test animal on an experimental device, lithium or amphetamine (0.5 mg/kg, injection 10 ml/kg) was injected into abdominal cavity of the animal. The test procedure was in accordance with that of reactivity test in an open field, but a breeding cage (24×18×13 cm) took the place of a white acryl open field in this example and a subject used was a styrofoam covered with 0.5 g aluminum foil and the size of which was 1.5×1.5×1.5 cm. Behavior of the animal was all recorded by a video camera for further analysis. Same standard and behavior index were used.

For `CC(N)Cc1ccccc1` (centres unmarked) [amphetamine], the “early mobility increase of α1G−/− transgenic mice” value was “not mitigated; also recorded: did not decrease” and the “non environment dependent mobility increase” value was “over-induced; also recorded: increased excessively”.
